Assay results taken from patent US9555077B2 (UNIVERSITY OF MIYAZAKI, priority 2011, dated 2017).

Tests used:
[1] = system: secretion of growth hormone (GH) from the pituitary gland; conditions: Broglio et al. 2004; cited from earlier work
rats with hyperthermia = test: Suppressive effect of desacyl ghrelin against body temperature increase in rats with hyperthermia (rectal temperature, survival); format: in vivo, rat
Experimental: The rectal temperature was measured with a small animal body temperature controller ATC-101B made by Unique Medical Co., Ltd.
The life or death of each animal was determined in a comprehensive manner based on changes in the heart rate, respiratory rate, and body temperature, the amount of activity, the response to a physical stimulation, etc.
This experiment was performed in the same manner as in Example 1 unless otherwise stated.
While maintaining the air temperature in the laboratory at 33 to 35° C., the humidity was increased from 30% (at the beginning of the experiment) to 75% (at the end of the experiment), and thus the laboratory conditions were gradually changed to high temperature and high humidity conditions. The rats were then carried into the laboratory. The rats were housed in a plastic cage in groups of three each. […] As a control, 200 μl/rat of physiological saline was intraperitoneally injected to the rats.
At the elapsed time of 110 minutes (80 minutes after the intraperitoneal injection), the rats were transferred from the laboratory to room temperature.
At the elapsed time of 130 minutes (100 minutes after the intraperitoneal injection), the life or death of each rat was determined by visual observation and palpation.
The body temperature was measured at the rectum in this Example.

[2] = system: rats with the normal body temperature; test: Hypothermic effect of desacyl ghrelin in rats with normal body temperature (back/tail surface temperature by thermography); format: in vivo, rat; conditions: male Wistar rats
Experimental: Male Wistar rats (9 to 10 weeks old) were used as experimental animals.
The administration to the animals was performed by a single dose of intraperitoneal or intracerebroventricular injection. The dose was 3 nmol/rat for intraperitoneal administration and 0.5 nmol/rat for intracerebroventricular administration, regardless of the weight of the animals. The weight of the rats varied from 350.2 to 375.8 g.
The back or tail surface temperature of the animals was measured for 1 hour at intervals of 1 minute by thermography using FLIR SC620 (software name: FLIR Rsearch IR) made by FLIR Systems Inc. The body temperature values measured by thermography are shown as increase and decrease from the zero reference point obtained by measurement of the body temperature for 10 minutes prior to the intraperitoneal injection.
The laboratory was maintained at room temperature and the rats were carried thereinto. […] As another control, 200 μl/rat of physiological saline was intraperitoneally injected to the rats.
As a control, 0.5 nmol/rat of the rat-derived ghrelin was intracerebroventricularly administered the rats. As another control, 200 μl/rat of physiological saline was intracerebroventricularly administered to the rats.
The back and tail surface temperatures were measured by thermography in this Example.

desacyl ghrelin
activity to increase the secretion of growth hormone (GH) from the pituitary gland [1]: almost no activity | survival (life or death of each rat) (rats with hyperthermia; elapsed time 130 minutes (100 minutes after 10 nmol/rat i.p.), three rats per group, two of three control rats died): all the three rats in the desacyl ghrelin-administered group survived | Body temperature of rats (rats with hyperthermia; rectal, elapsed time 0 minutes at 33 to 35° C. (before the injection)): 36.1 ± 0.1 °C | body temperature, lower than that of the physiological saline-administered group (rats with hyperthermia; rectal, elapsed time 50 to 110 minutes (20 to 80 minutes after 10 nmol/rat i.p.), p<0.05 or 0.01): 0.3 to 1.2 °C | Body temperature of rats (rats with hyperthermia; rectal, elapsed time 10 minutes (before the injection)): 37.0 ± 0.1 °C | Body temperature of rats (rats with hyperthermia; rectal, elapsed time 20 minutes (before the injection)): 38.2 ± 0.2 °C | Body temperature of rats (rats with hyperthermia; rectal, elapsed time 30 minutes (time of intraperitoneal injection, 10 nmol/rat)): 38.8 ± 0.2 °C | Body temperature of rats (rats with hyperthermia; rectal, elapsed time 40 minutes (10 minutes after 10 nmol/rat i.p.)): 39.2 ± 0.2 °C | Body temperature of rats (rats with hyperthermia; rectal, elapsed time 50 minutes (20 minutes after 10 nmol/rat i.p.)): 39.7 ± 0.0 °C | Body temperature of rats (rats with hyperthermia; rectal, elapsed time 60 minutes (30 minutes after 10 nmol/rat i.p.)): 39.9 ± 0.1 °C | Body temperature of rats (rats with hyperthermia; rectal, elapsed time 70 minutes (40 minutes after 10 nmol/rat i.p.)): 40.0 ± 0.3 °C | Body temperature of rats (rats with hyperthermia; rectal, elapsed time 80 minutes (50 minutes after 10 nmol/rat i.p.)): 40.2 ± 0.2 °C | Body temperature of rats (rats with hyperthermia; rectal, elapsed time 90 minutes (60 minutes after 10 nmol/rat i.p.)): 40.0 ± 0.2 °C | Body temperature of rats (rats with hyperthermia; rectal, elapsed time 100 minutes (70 minutes after 10 nmol/rat i.p.)): 40.1 ± 0.2 °C | Body temperature of rats (rats with hyperthermia; rectal, elapsed time 110 minutes (80 minutes after 10 nmol/rat i.p.)): 40.3 ± 0.1 °C | hypothermic effect in back surface temperature compared with ghrelin-administered group ([2]; 0.5 nmol/rat intracerebroventricular, 10 to 30 minutes after injection (FIG. 3)): higher hypothermic effect | heat dissipation effect compared with ghrelin ([2]; 3 nmol/rat intraperitoneal, tail surface temperature (FIG. 2)): more excellent than that of ghrelin | tail surface temperature ([2]; 3 nmol/rat intraperitoneal, thermography (FIG. 2)): increased | back surface temperature, lower than that of the physiological-saline administered group ([2]; room temperature, 3 nmol/rat intraperitoneal, 5 to 60 minutes after injection, thermography (FIG. 1)): 0.3 to 0.8 °C
